The source of these data is patent US4769483A, “Cycloalkyl-substituted 4-aminophenyl derivatives and process for their preparation” (Farmitalia Carlo Erba, S.p.A., priority 1985, dated 1988).

Broadly, the IC50 is the midpoint of a concentration-inhibition curve.

The structures appear in SMILES notation.

Assay [1] concerns the target T1, human placental aromatase (Homo sapiens, UniProt P11511).
T1 construct: the enzyme system was isolated from the microsomal fraction of human placental tissue; from tissue; host or cells: human placenta, microsomal fraction
T1 sequence (P11511 1-503): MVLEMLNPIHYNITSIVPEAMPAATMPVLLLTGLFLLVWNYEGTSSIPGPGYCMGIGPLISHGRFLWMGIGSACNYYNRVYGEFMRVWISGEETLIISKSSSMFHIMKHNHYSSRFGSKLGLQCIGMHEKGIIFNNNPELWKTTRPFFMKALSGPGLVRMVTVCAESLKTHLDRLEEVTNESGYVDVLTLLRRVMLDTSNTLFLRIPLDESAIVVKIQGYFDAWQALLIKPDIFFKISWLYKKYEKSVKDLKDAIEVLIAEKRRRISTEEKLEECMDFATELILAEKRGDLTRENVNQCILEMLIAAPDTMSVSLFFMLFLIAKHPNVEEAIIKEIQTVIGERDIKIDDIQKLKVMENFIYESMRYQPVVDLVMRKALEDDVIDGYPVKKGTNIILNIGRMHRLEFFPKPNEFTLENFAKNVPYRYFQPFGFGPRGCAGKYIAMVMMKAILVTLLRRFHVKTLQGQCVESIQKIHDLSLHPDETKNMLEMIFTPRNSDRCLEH
Put plainly: Inhibition of human placental aromatase in vitro (3H2O release from 4-[1β,2β-3H]androstene-3,17-dione). In kind it is biochemical. Particulars: for IC50: microsomal fraction of human placental tissue, 50 nM 4-[3H]androstenedione, 100 μM NADPH, 0.05 mg microsomal proteins, 37° C., pH 7.5, 15 minutes; for Relative potency: versus aminoglutethimide (= 1 by definition). Here is the method:
The assay of the aromatase inhibition in vitro was carried out as follows: the enzyme system was isolated from the microsomal fraction of human placental tissue according to standard procedure. […] All incubations were carried out in a shaking water bath at 37° C. in air in 10 mM potassium phosphate buffer, pH 7.5, which contained 100 mM KCl, 1 mM EDTA and 1 mM dithiothreitol.
The experiments were carried out in 1 ml incubation volume containing 50 nM 4-[^3 H]androstenedione, various concentrations of the inhibitors, 100 μM NADPH and 0.05 mg of microsomal proteins. After 15 minutes of incubation the reaction was stopped by the addition of choroform (5 ml).
After centrifugation at 1500 ×g for 5 minutes aliquots (0.5 ml) were removed from the water phase for determination of ^3 H2 O formed.

The test system of a further assay is aromatase. Particulars: literature reports; cited from earlier work.

As for `Nc1ccc(C2CCCCC2)cc1` [4-cyclohexylaniline], in assay [1], half-maximal inhibition (IC50) was put at 1.22 µM and the Relative potency is 1.7. Further, in the assay on aromatase, the “aromatase-inhibiting action (in words)” value is listed as “more or less selective aromatase-inhibiting action”.

Regarding `C[C@@H](C(=O)OC1CCCCC1)c1ccc(N)cc1` [FCE 24328, cyclohexyl 2-(R)-2-(4'-aminophenyl)propionate], in assay [1], the IC50 was determined as 0.1 µM and the Relative potency turned out to be 21.2.

With `C[C@@H](C(=O)NC1CCCCC1)c1ccc(N)cc1` [FCE 24786, N-cyclohexyl-2-(R)-2-(4'-aminophenyl)propanamide], in assay [1], inhibition was half-maximal at 0.13 µM (IC50) and the Relative potency is listed as 16.3.

Turning to `CCC1(c2ccncc2)CCC(=O)NC1=O` (centres unmarked) [4-pyridyl-3-ethyl-2,6-piperidinedione], in the assay on aromatase, the “aromatase-inhibiting action (in words)” value is on record as “more or less selective aromatase-inhibiting action”.
